Data reported in US20040106148A1, “Polypeptides” (priority 2000, published 2004).

Legend:
[1] = biological target: T1, human TAPP1, full length, mutant R28L (FL-TAPP1 [R28L]), GST fusion (Homo sapiens, UniProt Q9HB21, R28L/T320A); assay: Surface plasmon resonance (BIACore), GST fusion binding to phosphoinositide in supported lipid monolayer; settings: supported phosphatidylcholine monolayers, 1:1 binding model, read-out: Apparent Kd
T1 construct: wild type and mutant forms of full length (FL); made in house; host or cells: human embryonic kidney 293 cells (pEBG-2T)
T1 sequence (Q9HB21 whole entry R28L/T320A, the tested form may be a part): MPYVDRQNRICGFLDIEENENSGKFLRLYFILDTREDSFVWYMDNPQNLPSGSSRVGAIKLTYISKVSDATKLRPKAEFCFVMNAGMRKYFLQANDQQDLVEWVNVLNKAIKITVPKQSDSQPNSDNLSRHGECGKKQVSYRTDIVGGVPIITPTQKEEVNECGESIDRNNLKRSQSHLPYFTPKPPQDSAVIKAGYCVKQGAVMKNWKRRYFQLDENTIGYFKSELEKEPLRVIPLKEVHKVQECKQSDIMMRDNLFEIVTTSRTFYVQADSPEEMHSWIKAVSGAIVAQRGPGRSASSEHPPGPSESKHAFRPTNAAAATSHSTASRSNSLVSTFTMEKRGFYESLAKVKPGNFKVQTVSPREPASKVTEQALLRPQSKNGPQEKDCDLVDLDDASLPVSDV
Method: (§1) Expression of GST-PH domains in human embryonic kidney 293 cells. […] For the expression of each construct, twenty 10 cm diameter dishes of 293 cells were cultured and each dish transfected with 5 μg of the pEBG-2T construct, using a modified calcium phosphate method. 36 h post-transfection, the cells were lysed in 1 ml of ice-cold Buffer A, the lysates pooled, centrifuged at 4° C. for 10 min at 13,000×g and the GST-fusion proteins were purified by affinity chromatography on glutathione-Sepharose and stored as described above.
(§2) Cloning TAPP1, TAPP2, FAPP1 and PEPP1. Full length human TAPP1, full length mouse TAPP2, partial mouse TAPP1, partial human TAPP2, and full length human and mouse FAPP1 sequences were deduced by sequencing the EST clones listed in Table 3. […] The constructs used to express full length and deletion mutants of TAPP1 and TAPP2 were generated by PCR, using as a template ESTs encoding full length human TAPP1 (accession number AI216176) and full length mouse TAPP2 (accession number AA111410). […]
(§3) Kinetic analyses of the interactions between the GST PH domain fusions and the polyphosphoinositides were made using surface plasmon resonance based procedures as described previously, with the following modifications. […] Data were analysed using the bimolecular interaction model and the global fitting feature of the BIAevaluation 3 software for several sensorgrams at different protein concentrations. […] The relative binding affinities of each protein relative to the binding of full length GST-TAPP1 to PtdIns(3,4)P2 were also calculated.
(§4) We studied the specificity and affinity of interaction of the PH domains for phosphoinositide lipids using either a “protein-lipid overlay” assay (FIG. 2) or the more quantitative surface plasmon resonance based approach (Table 2). […] For the surface plasmon resonance based assay, the apparent Kd values of the GST PH domain fusion proteins resulting from their interaction with a supported lipid monolayer containing a low mole fraction of phosphoinositide, was determined (Table 2).

[2] = biological target: T2, mouse TAPP2, full length (FL-TAPP2, accession AF286161), wild type, GST fusion (Mus musculus, UniProt Q9ERS5); assay: as above; settings: supported phosphatidylcholine monolayers, 1:1 binding model, NB, no binding detected, read-out: Apparent Kd
T2 construct: made in house; host or cells: human embryonic kidney 293 cells (pEBG-2T)
T2 sequence (Q9ERS5 whole entry, the tested form may be a part): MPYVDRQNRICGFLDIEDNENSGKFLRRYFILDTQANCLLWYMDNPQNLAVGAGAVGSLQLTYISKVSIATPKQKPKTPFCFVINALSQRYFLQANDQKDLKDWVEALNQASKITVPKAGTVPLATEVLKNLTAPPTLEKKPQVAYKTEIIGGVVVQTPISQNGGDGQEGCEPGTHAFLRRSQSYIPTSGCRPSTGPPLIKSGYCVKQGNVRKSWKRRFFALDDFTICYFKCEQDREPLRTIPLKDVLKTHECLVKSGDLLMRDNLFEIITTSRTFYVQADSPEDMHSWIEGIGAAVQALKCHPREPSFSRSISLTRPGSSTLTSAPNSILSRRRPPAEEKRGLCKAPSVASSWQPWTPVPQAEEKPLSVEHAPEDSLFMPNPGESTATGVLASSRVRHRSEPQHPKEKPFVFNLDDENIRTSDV
Method: as §1, §2, §3, §4

[3] = biological target: human TAPP1 C-terminal PH domain (residues 95 to 404), GST fusion (Homo sapiens, UniProt Q9HB21); assay: Protein-lipid overlay; format: binding; settings: protein-lipid overlay (FIG. 2)
Sequence of human TAPP1 C-terminal PH domain (residues 95 to 404), GST fusion (Q9HB21 95-404): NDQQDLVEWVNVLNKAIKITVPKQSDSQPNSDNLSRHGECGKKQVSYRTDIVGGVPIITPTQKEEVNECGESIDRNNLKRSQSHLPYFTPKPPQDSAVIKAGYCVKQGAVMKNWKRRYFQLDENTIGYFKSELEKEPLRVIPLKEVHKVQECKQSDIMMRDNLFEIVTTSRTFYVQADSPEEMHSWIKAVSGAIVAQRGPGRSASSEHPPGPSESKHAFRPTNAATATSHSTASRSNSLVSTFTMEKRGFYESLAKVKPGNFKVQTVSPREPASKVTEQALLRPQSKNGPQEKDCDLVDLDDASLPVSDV
Method: (§5) FIG. 2. Phosphoinositide binding properties of the novel PH domains. The ability of the indicated GST fusion proteins to bind a variety of phosphoinositides was analysed using a protein-lipid overlay. Serial dilutions of the indicated phosphoinositides (100 pmol, 50 pmol, 25 pmol, 12.5 pmol, 6.3 pmol, 3.1 pmol and 1.6 pmol) were spotted onto a nitrocellulose membranes which were then incubated with the purified GST fusion proteins. The membranes were washed and the GST-fusion proteins bound to the membrane by virtue of their interaction with lipid were detected using a GST antibody. A representative of at least 3 separate experiments carried out is shown.
(§6) FIG. 4. Comparison of the phosphoinositide binding properties of the N-terminal and C-terminal PH domains of TAPP1 and TAPP2. The ability of wild type and mutant forms of full length (FL) and isolated N-terminal (NT) and C-terminal (CT) PH domains of TAPP1 and TAPP2 GST-fusion proteins to interact with phosphoinositides were analysed using a protein-lipid overlay. Serial dilutions of the indicated phosphoinositides (100 pmol, 50 pmol, 25 pmol, 12.5 pmol, 6.3 pmol, 3.1 pmol and 1.6 pmol) were spotted onto a nitrocellulose membrane which was then incubated with the indicated purified GST fusion proteins. The membranes were washed and the GST-fusion proteins bound to the membrane by virtue of their interactions with lipid were detected using a GST antibody. A representative experiment of three is shown. The isolated N-terminal PH domain of human TAPP1 comprises residues 1 to 147, the isolated C-terminal PH domain of human TAPP1 comprises residues 95 to 404, the isolated N-terminal PH domain of mouse TAPP2 comprises residues 1 to 131 and the isolated C-terminal PH of mouse TAPP2 comprises residues 174 to 425.
(§7) Protein-Lipid overlay. To assess the phosphoinositide binding properties of each PH domain, a protein-lipid overlay assay was performed using the GST fusion proteins as described previously. […] The membrane was blocked in 3% (by mass) fatty acid-free BSA in TBST (50 mM Tris/HCl pH 7.5, 150 mM NaCl and 0.1% Tween-20 (by vol) for lh. The membrane was then incubated overnight at 4° C. with gentle agitation in the same solution containing 0.2 μg/ml of the indicated GST fusion protein. The membranes were washed 6 times over 30 min in TBST and then incubated for 1 h with 1/1000 dilution of anti-GST monoclonal antibody (Sigma). The membranes were washed as before, then incubated for 1 h with 1/5000 dilution of anti-mouse-HRP conjugate (Pierce). Finally, the membranes were washed 12 times over 1 h in TBST and the GST-fusion protein bound to the membrane by virtue of its interaction with phospholipid was detected by enhanced chemiluminescence.

[4] = biological target: T3, mouse TAPP2 C-terminal PH domain (residues 174 to 425), GST fusion (Mus musculus, UniProt Q9ERS5); assay: Protein-lipid overlay; format: binding; settings: protein-lipid overlay (FIG. 2)
T3 construct: made in house; host or cells: human embryonic kidney 293 cells (pEBG-2T)
T3 sequence (Q9ERS5 174-425): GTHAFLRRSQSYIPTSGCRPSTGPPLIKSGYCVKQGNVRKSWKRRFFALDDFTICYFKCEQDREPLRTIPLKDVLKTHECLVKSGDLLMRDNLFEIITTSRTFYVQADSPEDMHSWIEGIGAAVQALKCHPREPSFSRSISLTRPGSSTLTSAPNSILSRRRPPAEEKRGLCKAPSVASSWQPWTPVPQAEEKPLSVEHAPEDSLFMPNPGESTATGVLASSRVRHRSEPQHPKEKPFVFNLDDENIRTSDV
Method: as §5, §6, §7

Kd [1]: 28 nM
Kd [2]: 30 nM
phosphoinositide binding [3]: interacted
phosphoinositide binding [4]: interacted
Structure (SMILES): CCCCCCCCCCCCCCCC(=O)OC[C@H](COP(=O)(O)O[C@H]1[C@H](O)[C@@H](O)[C@H](OP(=O)(O)O)[C@@H](OP(=O)(O)O)[C@H]1O)OC(=O)CCCCCCCCCCCCCCC [PtdIns(3,4)P2]
